According to patent US20150105281A1, “Method for the Selection of Serum Biomarkers of Epigenetic Alterations, Particularly of Global Hypomethylation and Their Uses” (Universite Paris Descartes, priority 2012, published 2015):

Assays:
Format in all cases: cell-based, human
[1] = system: OBR; test: Cell viability (WST-1) with 5-aza-dC at increasing doses; settings: 96 h
Excerpt: (§1) To further determine the impact of global demethylation on the expression of hCGβ type II and pro-EPIL, we used 5-aza-2′ deoxycytidine (5-aza-dC), a strong inducer of DNA de-methylation and measured the levels of hCGβ type II and pro-EPIL in the supernatants of 10 cancer cell lines of various histological origin, treated at two different doses of 5-aza-dC. On the curve of viability of each cell line treated with 5-aza-dC at increasing doses, the two selected doses that have been selected for studying the effect of global hypomethylation by 5-aza-dC on the production of hCGβ type II and pro-EPIL were the doses corresponding to the 5-aza-dC concentrations at the inflexion point and at the 50% inhibition of cell viability (Inhibition growth Concentration 50% or IC 50), respectively (FIG. 3 and Table 2).
(§2) Briefly, 10,000 cells were plated in 96-well plates in 100 μl medium. After one day, dilution range of 5-aza-dC from 1,000 μM to 0.06 μM were added. After 96 h incubation time, 10 μl of WST-1 were added and optical density (O.D) were measured at 450 nm (FIG. 3 and Table 2).

[2] = system: JEG; test: as above; settings: 96 h
Excerpt: as §1, §2

[3] = system: HT1376; test: as above
Excerpt: as §1, §2

[4] = system: JAR; test: as above; settings: 96 h
Excerpt: as §1, §2

[5] = system: CLRB018P; test: as above; settings: 96 h
Excerpt: as §1, §2

[6] = system: TC320X6; test: as above; settings: 96 h
Excerpt: as §1, §2

[7] = system: A549; test: as above
Excerpt: as §1, §2

[8] = system: LCF09; test: as above; settings: 96 h
Excerpt: as §1, §2

[9] = system: SHP77; test: as above
Excerpt: as §1, §2

[10] = system: BC173; test: as above; settings: 96 h
Excerpt: as §1, §2

[11] = system: pro-EPIL; test: Pro-EPIL in supernatants of cancer cell lines after induction of DNA demethylation (ELISA); settings: 10 cancer cell lines, 72 h at dose A or dose B, supernatant, vs cells not exposed (FIG. 4A)
Excerpt: as §1
(§3) Experiments were performed as previously described. Briefly, in 75 cm^2 size cell culture flaks, cell lines were grew up to more than 50% confluence before treating them for 72 h with 5-aza-dC at either the doses A corresponding at the Inflection Points, or the doses B corresponding to IC50. […] After trypsinisation, cells were counted in malassez chamber using trypan blue. […] Then, the pro-EPIL and hCG B type II concentrations were determined by an ELISA immunoassay and an automated KRYPTOR immunoassay, respectively (Table 2, FIG. 4A, FIG. 4B).

[12] = system: hCGβ type II; test: hCGβ type II in supernatants of cancer cell lines after induction of DNA demethylation (KRYPTOR immunoassay); settings: 10 cancer cell lines, 72 h at dose A or dose B, supernatant, vs cells not exposed (FIG. 4B)
Excerpt: as §1, §3

[13] = Homo sapiens, read-out: Dose B (5-aza-dC concentration at the 50% inhibition of cell viability, IC 50)

## Nc1ncn([C@H]2C[C@H](O)[C@@H](CO)O2)c(=O)n1 [5-aza-dC, 5-aza-2′ deoxycytidine]
[1]; [13]
  IC50: 20 µM
[1]; OBR, bladder, WST-1
  Dose A (5-aza-dC concentration at the inflexion point of the viability curve): 6.5 µM
[2]; [13]
  IC50: 5 µM
[2]; JEG, placenta, WST-1
  Dose A (5-aza-dC concentration at the inflexion point of the viability curve): 2.6 µM
[3]; HT1376, bladder, 96 h, WST-1
  Dose A (5-aza-dC concentration at the inflexion point of the viability curve): 1.6 µM
[3]; Homo sapiens, HT-1376, 96 h, read-out: Dose B (5-aza-dC concentration at the 50% inhibition of cell viability, IC 50)
  IC50: 6.3 µM
[4]; [13]
  IC50: 17.7 µM
[4]; JAR, placenta, WST-1
  Dose A (5-aza-dC concentration at the inflexion point of the viability curve): 2 µM
[5]; CLRB018P, colon, WST-1
  Dose A (5-aza-dC concentration at the inflexion point of the viability curve): 15.6 µM
[5]; [13]
  IC50: 186 µM
[6]; [13]
  IC50: 77 µM
[6]; TC320X6, colon, WST-1
  Dose A (5-aza-dC concentration at the inflexion point of the viability curve): 4 µM
[7]; A549, lung, 96 h, WST-1
  Dose A (5-aza-dC concentration at the inflexion point of the viability curve): 12.5 µM
[7]; Homo sapiens, A549, 96 h, read-out: Dose B (5-aza-dC concentration at the 50% inhibition of cell viability, IC 50)
  IC50: 50 µM
[8]; [13]
  IC50: 25 µM
[8]; LCF09, lung, WST-1
  Dose A (5-aza-dC concentration at the inflexion point of the viability curve): 5 µM
[9]; Homo sapiens, SHP77, 96 h, read-out: Dose B (5-aza-dC concentration at the 50% inhibition of cell viability, IC 50)
  IC50: 27.5 µM
[9]; SHP77, lung, 96 h, WST-1
  Dose A (5-aza-dC concentration at the inflexion point of the viability curve): 8 µM
[10]; BC173, breast, WST-1
  Dose A (5-aza-dC concentration at the inflexion point of the viability curve): 1.95 µM
[10]; [13]
  IC50: 117 µM
[11]
  Effect on the production of pro-EPIL: induced consistently an increase
[12]
  Cell lines with an increase in the production of hCGβ type II: 7 out of 10
